Measurements taken from patent US20050118129A1, “Gentle and enhanced preservative systems” (priority 2003, published 2005).

How the values were obtained:
[1] = tested on: Staphylococcus aureus (ATCC 6538); assay: Comparison of strength between saccharides, preservative efficacy against bacteria; format: cell-based
Procedure: (§1) The preservative efficacy of various saccharides and a cationic polysaccharide were tested against one bacteria, i.e., Staphylococcus aureus (ATCC 6538), and against one fungus, i.e., Aspergillus niger (ATCC 16404). Acceptance criteria for the bacteria established that the number of viable bacteria, recovered per ml, be reduced by not less than 3.0 logs at 14 days. After the rechallenge at day 14, the concentration of bacteria shall be reduced by at least 3.0 logs at day 28. Acceptance criteria for the fungus established that the number of viable yeasts and molds, recovered per ml, remain at or below the initial concentrations within an experimental error of ±0.5 logs within 14 days. After day 28, the concentration of mold and yeast shall remain at or below the concentrations after rechallenge within experimental error of ±0.5 logs. Results of the saccharide/cationic polysaccharide preservative efficacy test are set forth below in Table 1.

[2] = tested on: Aspergillus niger (ATCC 16404); assay: Comparison of strength between saccharides, preservative efficacy against fungus; format: cell-based
Procedure: as §1

SMILES: O=C[C@H](O)[C@@H](O)[C@H](O)[C@H](O)CO [D-Glucose]
- Log Reduction of Staphylococcus aureus (ATCC 6538) at 28 Days (Bacteria) [1]: 1.9 Log
- Log Reduction of Aspergillus niger (ATCC 16404) at 28 Days (Fungus) [2]: 3.7 Log

SMILES: O=C[C@H](O)[C@@H](O)[C@@H](O)[C@H](O)CO [Galactose]
- Log Reduction of Staphylococcus aureus (ATCC 6538) at 28 Days (Bacteria) [1]: 2.2 Log
- Log Reduction of Aspergillus niger (ATCC 16404) at 28 Days (Fungus) [2]: 1.4 Log

SMILES: OC[C@@H](O)[C@@H](O)[C@H](O)[C@H](O)CO [Mannitol]
- Log Reduction of Staphylococcus aureus (ATCC 6538) at 28 Days (Bacteria) [1]: 2.0 Log
- Log Reduction of Aspergillus niger (ATCC 16404) at 28 Days (Fungus) [2]: 2.4 Log

SMILES: CO[C@H]1O[C@H](CO)[C@@H](O)[C@H](O)[C@H]1O [Methyl-α-D-gluco-pyranose]
- Log Reduction of Staphylococcus aureus (ATCC 6538) at 28 Days (Bacteria) [1]: 1.7 Log
- Log Reduction of Aspergillus niger (ATCC 16404) at 28 Days (Fungus) [2]: 1.6 Log

SMILES: CO[C@H]1O[C@H](CO)[C@@H](O)[C@H](O)[C@H]1O [Methyl-α-D-gluco-pyranoside]
- Log Reduction of Staphylococcus aureus (ATCC 6538) at 28 Days (Bacteria) [1]: 1.2 Log
- Log Reduction of Aspergillus niger (ATCC 16404) at 28 Days (Fungus) [2]: 2.9 Log

SMILES: OC[C@H]1O[C@H](O[C@H]2O[C@H](CO)[C@@H](O)[C@H](O)[C@H]2O)[C@H](O)[C@@H](O)[C@@H]1O [Trehalose]
- Log Reduction of Staphylococcus aureus (ATCC 6538) at 28 Days (Bacteria) [1]: 1.3 Log
- Log Reduction of Aspergillus niger (ATCC 16404) at 28 Days (Fungus) [2]: 2.0 Log

SMILES: O=C(CO)[C@@H](O[C@H]1O[C@H](CO)[C@@H](O)[C@H](O)[C@H]1O)[C@H](O)[C@H](O)CO [Turanose]
- Log Reduction of Staphylococcus aureus (ATCC 6538) at 28 Days (Bacteria) [1]: 1.4 Log
- Log Reduction of Aspergillus niger (ATCC 16404) at 28 Days (Fungus) [2]: 2.1 Log
